From US12286625B2, “Inhibition of mir-22 miRNA by APT-110” (AptamiR Therapeutics, Inc., priority 2016, dated 2025)
Where two headings read alike, the source gives them in different places.

Legend:
[1] = Saenger 1989; cited from earlier work
[2] = test system: UCP-1 protein expression in human subcutaneous adipocytes; assay: UCP-1 protein expression by immunofluorescence in human subcutaneous adipocytes; type: cell-based; conditions: Day 14; 50 nM APT-110 or 100 nM rosiglitazone; PBS 48±3%
Experimental: To assess the effects of miR-22 inhibition on mitochondrial mass and activity, metabolic rate and energy expenditure, in vitro and in vivo experiments were carried out. In vitro intra-cellular assessment of mitochondrial mass and activities, as well as energy expenditure during miR-22 inhibition of human subcutaneous adipocytes were examined. In the model of primary culture of human subcutaneous adipocytes differentiated for 3 days, then transfected with 50 nM of the miR-22-3p inhibitor APT-110 and maintained in culture (n=6 per condition), the following parameters were assessed on Day 14. […]
(§1) Human subcutaneous preadipocytes purchased from ZenBio, NC (Catalog #: SP-F-SL) were plated at confluence in 96-well plates and allowed to attach overnight in preadipocyte medium (DMEM/Ham's F-12 (1:1, v/v), HEPES buffer, fetal bovine serum and antibiotics) following the supplier's instructions. […] Using a 96-well format, gene expression was determined by q-RT-PCR kit following the Manufacturer's instructions (TaqMan Gene Expression Cells-to-Ct kit, Life Technologies, cat #AM1728) and a 7900 HT Fast Real Time PCR System (Applied Biosystems). […] Mitochondrial mass and activity as well as UCP-1 protein expression were determined by high content imaging (ArrayScan XTI and BMG Fluostar Galaxy reader), with UCP-1 antibody (abcam cat #ab10983), and MitoTracker® Deep Red FM (ThermoFisher M22426).

[3] = test system: human subcutaneous adipocytes; assay: O2 consumption rate (OCR), Seahorse XF24 with XF Palmitate-BSA Fatty Acid Oxidation kit, human subcutaneous adipocytes; type: cell-based; conditions: for basal OCR vs control adipocytes: basal conditions, rosiglitazone 100 nM or APT-110 50 nM, control BSA
Experimental: To characterize the effects of miR-22-3p inhibition on energy utilization in human subcutaneous adipocytes in culture, O2 consumption rate (OCR) was measured with the XF24 Analyzer (Seahorse Bioscience) using the XF Palmitate-BSA Fatty Acid Oxidation substrate kit during the successive addition of Oligomycin, FCCP, and Antimycin/Rotenone, following the manufacturer instructions.
Human subcutaneous pre-adipocytes (ZenBio, NC) were seeded into 96-well plates and differentiated for 7 days, then placed in maintenance medium according to the manufacturer's instructions. On Day 14, the adipocytes were transfected with 50 nM of the miR-22-3p inhibitor APT-110. Medium was exchanged every 2 to 3 days and Seahorse assay was performed on Day 21. Negative control was bovine serum albumin (BSA) and positive control was 100 nM rosiglitazone throughout the culture.

[4] = test system: human subcutaneous adipocytes; assay: Mitochondrial content/mass by MitoTracker in human subcutaneous adipocytes; type: cell-based; conditions: Day 14; Rosiglitazone 100 nM
Experimental: To assess the effects of miR-22 inhibition on mitochondrial mass and activity, metabolic rate and energy expenditure, in vitro and in vivo experiments were carried out. In vitro intra-cellular assessment of mitochondrial mass and activities, as well as energy expenditure during miR-22 inhibition of human subcutaneous adipocytes were examined. In the model of primary culture of human subcutaneous adipocytes differentiated for 3 days, then transfected with 50 nM of the miR-22-3p inhibitor APT-110 and maintained in culture (n=6 per condition), the following parameters were assessed on Day 14.
as §1

DIO C57BL/6J male mice = assay: APT-110 in 14-week old DIO mice on 60% high fat diet treated 6 weeks; type: in vivo, mouse
Experimental: A similar study was performed in 14-week old mice (n=9 per group) which were randomized into 2 groups according to similar body weights and kept on 60% high fat diet (Research Diet D12492) for 6 weeks. One group of mice received subcutaneous injections in the left inguinal fat pad of a custom-designed miR-22-3p inhibitor (APT-110, 18 nucleotides long, 15 mg/kg) on days 0, 2, and 4 of the first week, then once a week for the next 5 weeks. The other group kept on 60% high fat diet received saline injections.
Body composition was measured by NMR at the end of the study (week 6 of treatment). Fat mass was 30% lower in the APT-110 miR-22-3p inhibitor group on 60% fat diet than that in the control group on saline and 60% fat diet (11.29±0.87 vs. 16.11±0.87 grams, p<0.0017). Lean mass was similar in both groups at week 6 of treatment (21.74±0.99 vs. 22.33±0.63 grams).
DIO male C57BL/6J mice were started on a 60% high fat diet at the age of 6-week old and were randomized according to body weight into treatment groups (8 to 12 animals per group) at various ages. After acclimation for 1 to 2 weeks, the mice were administered subcutaneous injections of saline or a miR-22 antagomir in the left inguinal fat pad (injections on Days 0, 2, and 4, then once a week for up to 12 weeks) while they remained on the 60% high fat diet. In some studies, another control group of mice was switched back to a normal 10% fat chow at the time of treatment randomization.
Blood samples were collected by retro-orbital bleeds or cut tip of the tail. Mice underwent body composition analysis by NMR (Bruker LF50 BCA-Analyzer) while they were gently restrained to keep them quiet during this non-invasive measurement. Liver, heart, inguinal fat, perirenal or epididymal fat, and subscapular fat were weighed and collected for histology (10% formalin fixed, then transferred to 70% ethanol for shipment) and gene expression (flash frozen in duplicate). Spleens were weighed and discarded. Blood was collected and processed into serum or plasma at the time of necropsy by cardiocentesis. Serum level of alanine aminotransferase (ALT), aspartate aminotransferase (AST), glucose, insulin, cholesterol and triglycerides were measured.

DIO C57BL/6 male mice = type: in vivo, mouse; set-up: Plasma adiponectin: unit not given here; conditions: for energy expenditure after i.p. injection: 0.5 mg/kg i.p.
Experimental: A dedicated study was conducted under contract at the University of Buckingham Institute of Translational Medicine (Pr. M A Cawthorne, Pr. P Trayhurn, Dr. C. Stocker) to assess the energetic and metabolic responses to the APT-110 miR-22-3p inhibitor treatment in adult Diet-Inducted-Obese (DIO) C57BL/6 male mice over the course of 3 months. Twenty-four DIO male C57BL/6 mice, who started on 60% high fat diet at the age of 7 weeks, were purchased at 15 weeks of age from the Jackson Laboratory, USA. The mice remained on a 60% high fat diet (Research Diet D12492) throughout the experiment. The mice were kept on a 12 h light/12 h dark light cycle with lights on at 08h00 and at a room temperature of 25±1° C. The mice were allocated to 2 groups of 12 mice each, (2 mice/cage) so that mean and standard deviation for body weight, blood glucose and serum insulin were similar across both groups. Mice were acclimated for two weeks before treatment initiation.
For oral glucose tolerance test, food was removed six hours prior to the start of the glucose tolerance test (09h00) and animals were placed in clean cages. Mice were dosed with glucose at T=0 minutes. Glucose was dissolved in water and given to the mice by oral gavage at a dose of 2.5 g/kg p.o. Blood samples […] were taken from the cut tip of the tail after the application of Lidocaine gel (Biorex Laboratories UK) for the analysis of glucose concentration at −30, 0, 30, 60, 120 and 180 minutes relative to glucose administration. Blood samples were also taken at −30 and +30 minutes for insulin analysis (Crystal Chem Inc. Cat INS90090). Food was returned to the animals at the end of the glucose tolerance test. Plasma nonesterified Fatty Acids (NEFA, Crystal Wako Chemicals Gmbh, Neuss, Germany, Cat 999-75406), leptin (Crystal Chem. Inc., Cat LEP90030) and adiponectin (Alpco Diagnostics, Salem, New Hampshire, Cat 47-ADPMS-E01) were measured as per the manufacturers' recommendations. Body fat and lean content was measured by Nuclear Magnetic Resonance (NMR). Comparison with calibrated standards allowed identification of types of tissue by their density. Dedicated software was used to quantify amounts of adipose and […]. The mice were gently restrained, sufficient to keep them quiescent during this non-invasive technique.
To measure physical activity, mice were kept in their original cages of 2 mice per cage. Recordings were taken using an infra-red recorder linked to a laptop. Recordings were made on the hour every hour from 7 pm until 8 am. Each recording was of 10-minute duration. Lights went out at 8 pm and came on again at 8 am. Analysis of activity was done by virtually drawing 2 lines across each cage (thus dividing them into 3 equal parts). Recordings were analyzed by eye and the number of times a line was broken by a mouse in each 10-minute segment was scored. Energy expenditure was measured at several time points during the course of the study by open-circuit indirect calorimetry with mice kept in their home cages (6 cages of 2 mice per experimental group (Arch, J. R., et al., 2006; Arch, J. R. and P. Trayhurn, 2013).
At the end of the study, tissues and organs were collected, then frozen for future gene expression analysis or placed in 10% neutral buffered formalin solution (Sigma-Aldrich Cat HT501128), then washed in PBS, pH 7.4 and transferred to 70% ethanol for subsequent processing for histologic and immunohistochemistry analyses.
In some studies, non-esterified fatty acids (NEFA), plasma leptin and adiponectin were also measured and oral glucose tolerance tests (OGTT) were performed. Oral glucose tolerance test was performed as follows: Six hours prior to the start of the glucose tolerance test (09h00), food was removed and animals were given clean cages. Mice were dosed with glucose at T=0 minutes. […]

[5] = Day −2 (before treatment), 6 hours fast
[6] = end of 12-week study, Mean ± SEM

Nc1nc2c(ncn2[C@@H]2O[C@H](CO)[C@@H](O)[C@H]2O)c(=O)[nH]1 [guanosine]
pKa [1]: 9.42

CN(CCOc1ccc(CC2SC(=O)NC2=O)cc1)c1ccccn1 (stereo not shown) [Rosiglitazone, reference compound]
number of UCP1 positive cells [2]: 58±2% | maximum respiration vs control ([3]; after FCCP, rosiglitazone 100 nM): 4 fold | basal OCR vs control adipocytes [3]: 4 fold | cell density relative to miR-22-3p inhibitor condition [4]: 3 times more cells

5′-5mCpsTpsTps2′OMeCpsTpsTps5mCpsApsAps2′OMeCpsTpsGpsGps5mCpsApsGps5mCpsT-3′ [APT-110]
weight increase week 6 vs Week 0 (DIO C57BL/6J male mice; 60% high fat diet, 15 mg/kg SC, saline 22%): 6% | blood glucose after fasting for 4 hours (DIO C57BL/6J male mice; Day 35 of treatment, saline 245±8): 183 ± 11 mg/dL | random blood glucose (DIO C57BL/6J male mice; Day 44 of treatment, at necropsy, saline 341±9): 212 ± 12 mg/dL | fat mass lower than control group on saline (DIO C57BL/6J male mice; NMR, week 6): 30% | fat mass (DIO C57BL/6J male mice; NMR, week 6, saline 16.11±0.87): 11.29±0.87 grams | lean mass (DIO C57BL/6J male mice; NMR, week 6, saline 22.33±0.63): 21.74±0.99 grams | body weight (DIO C57BL/6J male mice; Week 0 (baseline)): 34.15±0.53 grams | serum cholesterol (DIO C57BL/6J male mice; at necropsy, saline 164±6): 110 ± 5 mg/dL | body weight (DIO C57BL/6J male mice; week 6, 60% high fat diet, saline 41.73±1.07): 36.16±0.67 grams | non-mitochondrial respirations and proton leak on addition of palmitate ([3]; APT-110 50 nM + palmitate): dramatic increase | maximum respiration increase ([3]; APT-110 50 nM, assay Day 21): 33% | basal OCR vs control adipocytes [3]: 2 fold | 24-hr energy expenditure vs saline (DIO C57BL/6 male mice; Day 10 of treatment): did not show a difference | energy expenditure vs saline (DIO C57BL/6 male mice; Day 11, confirmed on Day 28 and Day 52): increase in energy expenditure | Blood glucose (DIO C57BL/6 male mice; Day 44, 6 hours fast): 9.01 ± 0.19 mmol/L | Plasma adiponectin (DIO C57BL/6 male mice; Day 44, 6 hours fast): 2.66 ± 0.15 | Plasma insulin (DIO C57BL/6 male mice; Day 44, 6 hours fast): 295 ± 25 pmol/L | Plasma leptin (DIO C57BL/6 male mice; Day 44, 6 hours fast): 4.85 ± 0.42 nmol/L | Oral Glucose Tolerance Test profile (DIO C57BL/6 male mice; Day 75, glucose 2.5 g/kg p.o., saline mice diabetic profile): normal profile | Blood glucose (DIO C57BL/6 male mice; Day 79, 6 hours fast): 5.71 ± 0.18 mmol/L | Plasma adiponectin (DIO C57BL/6 male mice; Day 79, 6 hours fast): 3.16 ± 0.13 | Plasma insulin (DIO C57BL/6 male mice; Day 79, 6 hours fast): 220 ± 17 pmol/L | Plasma leptin (DIO C57BL/6 male mice; Day 79, 6 hours fast): 4.21 ± 0.54 nmol/L | Cholesterol (DIO C57BL/6 male mice; Day 85, 6-hour fast, p<0.0001): 4.67 ± 0.16 mmol/L | Non Esterified Fatty Acids (DIO C57BL/6 male mice; Day 85, 6-hour fast, p=0.003): 1.71 ± 0.08 mmol/L | Triglycerides (DIO C57BL/6 male mice; Day 85, 6-hour fast, p=0.11): 1.46 ± 0.08 mmol/L | Blood glucose (DIO C57BL/6 male mice; [5]): 6.69 ± 0.27 mmol/L | Plasma adiponectin (DIO C57BL/6 male mice; [5]): 3.16 ± 0.13 | Plasma insulin (DIO C57BL/6 male mice; [5]): 179 ± 18 pmol/L | Plasma leptin (DIO C57BL/6 male mice; [5]): 3.11 ± 0.45 nmol/L | fat mass difference vs saline (NMR) (DIO C57BL/6 male mice; Week 12, Day 82): −12% | lean mass (NMR) (DIO C57BL/6 male mice; Week 12, Day 82): identical in both groups | total daily energy expenditure greater than saline (DIO C57BL/6 male mice; average, day 11 to day 53): 13% | insulin sensitivity (fasting Insulin/Glucose ratio over time) (DIO C57BL/6 male mice; course of the 12-week study, control group developed insulin resistance): maintain the same level of insulin sensitivity | Epdidymal fat weight (DIO C57BL/6 male mice; [6]): 1.8 ± 0.978 grams | Inguinal fat weight (DIO C57BL/6 male mice; [6]): 3.166 ± 0.135 grams | Liver weight (DIO C57BL/6 male mice; [6]): 2.442 ± 0.127 grams | Peri-renal fat weight (DIO C57BL/6 male mice; [6]): 1.183 ± 0.096 grams | Subscapular fat weight (DIO C57BL/6 male mice; [6]): 0.202 ± 0.020 grams | weight gain vs mice receiving saline injections (DIO C57BL/6 male mice; week 12 of treatment, 60% high fat diet): −30%

Nc1ncnc2c1ncn2[C@@H]1O[C@H](CO)[C@@H](O)[C@H]1O [adenosine]
pKa of the conjugate acid [1]: 3.52

Cc1cn([C@H]2C[C@H](O)[C@@H](CO)O2)c(=O)[nH]c1=O [thymidine]
pKa [1]: 9.93

C[C@H](Cc1ccc2c(c1)OC(C(=O)[O-])(C(=O)[O-])O2)NC[C@H](O)c1cccc(Cl)c1.[Na+].[Na+] [CL316243, reference compound]
energy expenditure after i.p. injection (DIO C57BL/6 male mice; APT-110 group): increased | energy expenditure after i.p. injection (DIO C57BL/6 male mice; control (saline) group): increased
